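Cultured in 96-well plates, cells were exposed to test compound for 48 hours across five concentrations. GI50: concentration for 50% inhibition of growth. TGI marks complete inhibition of growth.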
Experiments:
Assay in all cases: DTP human tumour cell line panel, 48 h
786-0 renal = test system: 786-0 renal
HL-60(TB) leukemia = test system: HL-60(TB) leukemia
IGROV1 ovarian = test system: IGROV1 ovarian
SK-MEL-28 melanoma = test system: SK-MEL-28 melanoma
SK-MEL-5 melanoma = test system: SK-MEL-5 melanoma
HCT-15 colon = test system: HCT-15 colon
EKVX NSCLC = test system: EKVX NSCLC
SR leukemia = test system: SR leukemia
SK-OV-3 ovarian = test system: SK-OV-3 ovarian
HCT-116 colon = test system: HCT-116 colon

Row | Compound | TGI (786-0 renal) [µM] | TGI (HL-60(TB) leukemia) [µM] | TGI (IGROV1 ovarian) [µM] | TGI (SK-MEL-28 melanoma) [µM] | TGI (SK-MEL-5 melanoma) [µM] | TGI (HCT-15 colon) [µM] | TGI (EKVX NSCLC) [µM] | TGI (SR leukemia) [µM] | TGI (SK-OV-3 ovarian) [µM] | TGI (HCT-116 colon) [µM] | GI50 (786-0 renal) [µM] | GI50 (HL-60(TB) leukemia) [µM] | GI50 (IGROV1 ovarian) [µM] | GI50 (SK-MEL-28 melanoma) [µM] | GI50 (SK-MEL-5 melanoma) [µM] | GI50 (HCT-15 colon) [µM] | GI50 (EKVX NSCLC) [µM] | GI50 (SR leukemia) [µM] | GI50 (SK-OV-3 ovarian) [µM] | GI50 (HCT-116 colon) [µM]
1 | Cc1ccc(NC(=O)/C(Cc2cc(=O)oc3cc(O)ccc23)=N\NC(=O)C[N+](C)(C)C)cc1C | > 100 | > 100 | > 100 | > 100 | > 100 | > 100 | > 100 | > 100 | > 100 | > 100 | – | – | – | – | – | – | – | – | – | –
2 | COc1c(O)c(OC)c2oc(-c3ccc(O)cc3)c(OC)c(=O)c2c1O | 86.3 | > 100 | 51.4 | > 100 | > 100 | > 100 | > 100 | > 100 | 53.7 | > 100 | – | – | – | – | – | – | – | – | – | –
3 | c1cnn2ncc(-c3ccnc(Nc4ccc5c(c4)OCCO5)n3)c2c1 | > 25 | 0.155 | > 25 | 0.199 | 0.632 | > 25 | 1.13 | – | > 25 | 1.04 | 0.0764 | 0.0423 | 0.0815 | 0.0544 | 0.0651 | 0.0863 | 0.0997 | 0.0466 | 0.178 | 0.0533
4 | COc1cc2nc(-c3ccc(C(F)(F)F)cc3)cc(OCCCN3CCCC3)c2cc1OC | 6.03 | 5.86 | 14.5 | 5.65 | 1.28 | 6.99 | 24.5 | – | > 53.4 | 4.29 | 1.88 | 1 | 0.593 | 1.69 | 0.51 | 0.429 | 0.848 | 0.207 | 6.65 | 0.333
5 | CC(C)Oc1ccc(C(=O)Cn2ccnc2)cc1-n1c(CN2CCN(C(=O)COc3ccc(Cl)cc3)CC2)nc2ccccc2c1=O | 5.48 | 27.7 | 16.5 | 29.9 | 23.5 | 32.6 | 97 | 36.8 | 76.2 | 24.9 | 1.3 | 2.3 | 1 | 14.1 | 9.78 | 12.3 | 16.5 | 5.64 | 20 | 8.68
6 | CCCCCCCCCCCC1CC(=O)NCCCN(C)CCCCN(C)CCCN1C (stereo not drawn) | 2.89 | 5.32 | 3.22 | 3.09 | 3.43 | 3 | 3.2 | 0.605 | 3.2 | 2.89 | – | – | – | – | – | – | – | – | – | –
7 | CCn1c(-c2nonc2N)nc2ccncc21 | > 25 | > 25 | > 25 | > 25 | > 25 | > 25 | > 25 | > 25 | > 25 | > 25 | > 25 | > 25 | > 25 | > 25 | > 25 | > 25 | > 25 | > 25 | > 25 | > 25
8 | CC1OC(c2ccc3c(c2O)C(=O)C2=C(C3=O)C3(O)C(=O)CC(C)(O)CC3(O)C=C2)CC(O)C1O (stereo not drawn) | 33.6 | 4.07 | 27.9 | 29.4 | 22.9 | 29.7 | 33.9 | 33.5 | > 100 | 17.5 | – | – | – | – | – | – | – | – | – | –
9 | COc1cccc(COc2cc(-n3cnc4ccccc43)sc2C(N)=O)c1 | > 25 | > 25 | > 25 | > 25 | > 25 | > 25 | > 25 | > 25 | > 25 | > 25 | > 25 | 6.03 | > 23.8 | > 24 | > 19.4 | > 25 | > 25 | 6.98 | > 16.2 | 12.8
10 | COc1ccccc1NC(=O)/C(=C/c1ccccc1)C(C)=O | > 100 | 57.3 | > 100 | > 100 | 62 | > 100 | > 100 | > 100 | > 100 | > 100 | – | – | – | – | – | – | – | – | – | –
11 | Cc1cccc(C)c1N1C(=O)C(=O)C(c2nc3ccccc3s2)C(=Nc2cccc3c(=O)[nH][nH]c(=O)c23)C1=O (stereo not drawn) | > 100 | > 100 | > 100 | > 100 | > 100 | > 100 | > 100 | > 100 | > 100 | > 100 | – | – | – | – | – | – | – | – | – | –
12 | CC1c2ccccc2N=C2SC(=S)N3CCN=C3N21 (stereo not drawn) | > 100 | > 100 | > 100 | > 100 | 35.8 | > 100 | > 100 | > 100 | > 100 | > 100 | > 100 | > 100 | > 100 | > 100 | 2.25 | > 100 | 4.33 | > 100 | > 100 | > 100
13 | CC(C)[O-].CC(C)[O-].O=c1cccccc1[O-].O=c1cccccc1[O-].[Ti+4] | 69.9 | > 100 | > 100 | > 100 | 69.8 | > 100 | > 100 | > 100 | > 100 | > 100 | – | – | – | – | – | – | – | – | – | –
14 | O=C1C2=C(CCC2)Nc2cccc3ncn1c23 | > 100 | > 100 | > 100 | > 100 | > 100 | > 100 | > 100 | > 100 | > 100 | > 100 | – | – | – | – | – | – | – | – | – | –
15 | Cc1cc2c(cc1Cl)S/C(=C/C(=O)O)C(Nc1cccc3nsnc13)=NS2(=O)=O | > 62.2 | > 32.5 | > 78.3 | 19.4 | > 58.5 | > 68.8 | > 19.9 | > 100 | > 62.5 | > 59.2 | 36.5 | 7.63 | > 49.9 | 8.06 | 33.4 | > 54.7 | > 10.5 | 32.8 | > 49.5 | 33.5
16 | Cc1cccc(N=Nc2ccc(N=Nc3c(O)ccc4ccccc34)cc2C)c1 | > 100 | > 100 | > 100 | > 100 | > 100 | > 100 | > 100 | 49.5 | 92.4 | > 100 | – | – | – | – | – | – | – | – | – | –
17 | Nc1cc(-c2ccc(Cl)cc2)nn1-c1nnc(/C=C/c2ccco2)c(=O)[nH]1 | 23.9 | > 28.6 | 37.8 | 61 | 20.2 | > 49.1 | > 55.7 | > 100 | > 86.2 | 15.8 | 5.04 | 4.23 | 4.89 | 6.42 | 3.37 | 1.38 | 4.11 | 2.53 | 6.09 | 3.15
18 | O=c1[nH]c2cc([N+](=O)[O-])ccc2nc1/C(=N\Nc1ccccc1)C(O)c1ccc2c(c1)OCO2 (stereo not drawn) | > 100 | > 100 | > 100 | > 100 | > 100 | 58.2 | > 100 | > 100 | > 100 | > 100 | – | – | – | – | – | – | – | – | – | –
19 | Cc1cccc(C)c1N1C(=O)C(=O)C(c2nc3ccccc3s2)/C(=N/NC(=O)NN)C1=O (stereo not drawn) | > 100 | > 100 | > 100 | > 100 | > 100 | > 100 | > 100 | > 100 | > 100 | > 100 | – | – | – | – | – | – | – | – | – | –
20 | CC1(C)CC(=O)C(CC2C(=O)c3ccccc3C2=O)C(=O)C1 | > 100 | > 100 | > 100 | > 100 | > 100 | > 100 | > 100 | > 100 | > 100 | > 100 | – | – | – | – | – | – | – | – | – | –
21 | CC1(O)CCn2c(=O)c3cc4ccccc4cc3c(=O)n2C1O (stereo not drawn) | > 100 | > 100 | > 100 | > 100 | > 100 | > 100 | > 100 | > 100 | > 100 | > 100 | – | – | – | – | – | – | – | – | – | –
22 | CN(C)C(=S)Nc1nnc(Nc2ccccc2)s1 | > 100 | > 100 | > 100 | > 100 | > 100 | > 100 | > 100 | > 100 | > 100 | > 100 | – | – | – | – | – | – | – | – | – | –
23 | O=C1c2ccccc2-c2c1c1c(NCCCO)nc3ccccc3c1n2Cc1ccccc1 | 43.7 | 25.7 | > 100 | 38.1 | > 100 | > 100 | 64.4 | 24.1 | 40.4 | 35.1 | 21.3 | 12 | 48.6 | 20.6 | 31 | 37.5 | 27.5 | 6.04 | 21.9 | 15.8
24 | Cc1ccc(C)c(N2C(=O)C(=O)C(c3nc4ccccc4s3)C(=Nc3cccc4c(=O)[nH][nH]c(=O)c34)C2=O)c1 (stereo not drawn) | > 100 | > 100 | > 100 | > 100 | > 100 | > 100 | > 100 | > 100 | > 100 | > 100 | – | – | – | – | – | – | – | – | – | –

From PubChem BioAssay (NCI)
